Series [1] concerns RWPE-1 normal human prostate epithelial cells. Kind of series: MTS cell viability assay, RWPE-1. The note with it: 5 µM, after 72 h, triplicate. It is filed as cell-based. The text has this:
(§1) Human epithelial prostate cell line (RWPE-1, ATCC No. CRL-11610), human prostate cancer cell line (Human prostate carcinoma DU-145, ATCC No. HTB-81), human adenocarcinoma PC3, ATCC No. CRL-1435), androgen-sensitive human prostate adenocarcinoma cells (LNCaP, ATCC No. CRL-1740), and castration-resistant LNCaP-derived C4-2 (ATCC No. CRL-1595) were purchased from American Type Culture Collection (ATCC), Manassas, VA, USA. All the media, serum, and antibiotics were bought from American Type Culture Collection (ATCC) (Manassas, VA, USA) and Sigma life-science (St. Louis, MO, USA). Keratinocytes SFM (1×) with EGF + BPE was bought from Gibco life technologies (Thermo Fisher Scientific), Gaithersburg, MD, USA. CellTiter 96 was bought from Promega, Madison, WI, USA. […]
(§2) Cell-proliferation assay using MTS reagent was conducted against five cell lines (RWPE-1, PC3, DU-145, LNCaP, and, C4-2). […] The absorbance was obtained at 490 nm using SpectraMax M2 microplate reader to detect the formazan product. […] The percentage of cell viability was calculated by [(OD value of cells treated with the test mixture of compounds) − (OD value of culture medium)] / [(OD value of control cells) − (OD value of culture medium)] × 100%. […] Cell viability was determined by measuring the absorbance at 490 nm using SpectraMax M2 microplate spectrophotometer, as mentioned above.
(Tetrazolium assays rely on reduction of a dye to a coloured formazan, in cell work by metabolically active cells.)

Series [2] deals with LNCaP. In words: MTS cell viability assay, LNCaP. It is filed as cell-based, human. The note with it: 5 µM, after 72 h, triplicate.
Description: as §1, §2

In series [3] the test system is C4-2. In words: MTS cell viability assay, C4-2 without TGF-β. It is filed as cell-based, human. The following applies: 5 µM, after 72 h, triplicate. The text has this: (§3) Human epithelial prostate cell line (RWPE-1, ATCC No. CRL-11610), human prostate cancer cell line (Human prostate carcinoma DU-145, ATCC No. HTB-81), human adenocarcinoma PC3, ATCC No. CRL-1435), androgen-sensitive human prostate adenocarcinoma cells (LNCaP, ATCC No. CRL-1740), and castration-resistant LNCaP-derived C4-2 (ATCC No. CRL-1595) were purchased from American Type Culture Collection (ATCC), Manassas, VA, USA. All the media, serum, and antibiotics were bought from American Type Culture Collection (ATCC) (Manassas, VA, USA) and Sigma life-science (St. Louis, MO, USA). Keratinocytes SFM (1×) with EGF + BPE was bought from Gibco life technologies (Thermo Fisher Scientific), Gaithersburg, MD, USA. CellTiter 96 was bought from Promega, Madison, WI, USA. Dithiothreitol (DTT) was bought from Thermo Fisher scientific, Carlsbad, CA, USA, and TGF-β was bought from Abcam, Boston, MA, USA.
(§4) Cell-proliferation assay using MTS reagent was conducted against five cell lines (RWPE-1, PC3, DU-145, LNCaP, and, C4-2). Cells were seeded into 96-well plates (5 × 10^3 cells for all the cells) and incubated with 100 µL of complete medium (RPMI-1640 for RWPE-1, DU-145, LNCaP, and C4-2; DMEM for PC3) overnight at 37 °C with 5% CO2. Various concentrations (0, 0.06, 0.6, 6, 60, 600 μM) of the peptide solution (20 μL) were added to cells to yield the final concentrations of peptide (0, 0.01, 0.1, 1, 10, 100 μM). The cells were kept in an incubator (37 °C, 5% CO2) for 24, 48, or 72 h accordingly for different treatment time responses. […] The absorbance was obtained at 490 nm using SpectraMax M2 microplate reader to detect the formazan product. […] The percentage of cell viability was calculated by [(OD value of cells treated with the test mixture of compounds) − (OD value of culture medium)] / [(OD value of control cells) − (OD value of culture medium)] × 100%. […] Cell viability was determined by measuring the absorbance at 490 nm using SpectraMax M2 microplate spectrophotometer, as mentioned above.

Series [4] relates to PC3. In words: MTS cell viability assay, PC3. The note with it: 5 µM, after 72 h, MTS, triplicate. It is filed as cell-based, human.
Description: as §3, §4

Series [5] has as its system DU-145. Kind of series: MTS cell viability assay, DU-145. It is filed as cell-based, human. The following applies: 5 µM, after 72 h, triplicate.
Description: as §1, §2

Series [6] deals with EDB-FN. Kind of series: Confocal microscopy of FAM-tagged peptides, binding to EDB-FN. It is filed as cell-based, human. The following applies: C4-2 cells, 5 μg FAM-peptide, 12 h, confocal 60×. Here is the method: Prostate cancer cell line (C4-2) was grown in RPMI medium containing 10% fetal bovine serum and 1% penicillin/streptomycin at the 37 °C in a 5% CO2 incubator. The culture medium was changed every 2–3 days until confluency was reached to 80%. Each cells group was treated with 5 μg of fluorescence-tagged peptides (17 and 18) for 12 h. A set of control groups was also prepared, which was not treated with peptides. Then all cells were fixed with 4% paraformaldehyde for 10 min and washed for 10 min (3 times with PBS). The cells were blocked in 1% FBS/PBS for 10 min and washed for 10 min (3 times with PBS). To target EDB-FN on the cell surface, the cells were incubated with a mouse monoclonal anti-fibronectin antibody (Abcam, Cambridge, MA, USA) (1:1000 dilution using 1% FBS/PBS) overnight at the 4 °C. The cells were washed for 10 min (3 times with PBS), and a Texas red-conjugated anti-mouse secondary antibody was used in 1% FBS/PBS (5:1000 dilution) at the room temperature for 1 h. Then cells were washed for 10 min (3 times with PBS), and at the end, nuclei were stained using DAPI and covered with coverslips. Representative images of cells were captured using a standard confocal microscope (Nikon Eclipse Ti-E, Nikon Instruments Inc., Melville, NY, USA) at 60× magnification, and the images were processed for binary contrast quantification.

Where a SMILES comes first, the peptide text is derived from it. Bridges are numbered along the chain shown (N, C = ends). [ ]: non-standard residue; d: D form. Ahx = NCCCCCC(=O)O

Data on two compounds can be found in article PMC6651341, “EDB-FN Targeted Peptide–Drug Conjugates for Use against Prostate Cancer” (International Journal of Molecular Sciences, 2019).

On to `CC(C)C[C@H](NC(=O)[C@H](Cc1ccccc1)NC(=O)CNC(=O)[C@@H](N)CS)C(=O)NCC(=O)NCCCCCC(=O)N[C@H]1CCCCNC(=O)CC[C@@H](C(N)=O)NC(=O)[C@H](CC(=O)O)NC(=O)[C@H](C)NC(=O)[C@H](CO)NC(=O)[C@H]([C@@H](C)O)NC(=O)[C@H](CCCNC(=N)N)NC(=O)[C@H](C(C)C)NC(=O)[C@H]([C@@H](C)O)NC1=O` [compound 9] (H-CGFLG[Ahx]KTVRTSADE-NH2; lactam 7-15), for which the cytotoxicity entry in series [1], in series [2], in series [3], in series [4] and in series [5] was “did not show any significant cytotoxicity” in each case.

With “FAM-GFLG-C6-[KTVRTSADE] (sidechain bridge or staple) [compound 18]”, the “increase in the peptide-stained area compared to peptide 17 (binary contrast quantification)” value in series [6] is given as 48%.
